Reference: the pKa sets of Baltruschat and Czodrowski (2020)

Conditions: basic group
With C[NH+](C)C[C@H]1[C@@H]2CC[C@@](C)([C@H]1N)C2(C)C the pKa was 6.59. With Cn1ccnc1-c1nccn1C the pKa was 4.91. In the case of Brc1ccnc2c1ccc1cccnc12, the pKa is reported as 4.03. Molecule CN(C)c1ccc(N2CCOCC2)cc1 has a pKa of 5.7. In the case of Cc1ccc(C)c(N)c1, the pKa is reported as 4.47. For CN(C)CCOC(C)(c1ccccc1)c1ccccn1 (centres undefined), the pKa was 9.2. For CCC(=O)C(c1ccccc1)(c1ccccc1)[C@@H](C)CN(C)C, the pKa was 8.07. Molecule c1ccc(Oc2ccnc3c2ccc2c(Oc4ccccc4)ccnc23)cc1 has a pKa of 5.34. With CC(C)Cc1ccc(O)c(CN(C)C)c1 the pKa was 8.51. In the case of NCC[NH2+]CCCO, the pKa is reported as 6.78. Cc1nccnc1C showed a pKa of 2.24. With CCCCNCCC#N the pKa was 8.3. CCN(CC)Cc1cccc(C)c1O showed a pKa of 8.19. Molecule C1CCC(C2CCCN2)CC1 (centres undefined) has a pKa of 10.8. Molecule CCN(CC)CCOC(=O)c1ccc2ccccc2c1 has a pKa of 7.52. Molecule NC(=S)C1(N)CCCCC1 has a pKa of 7.23. In the case of Nc1cccc(O)c1, the pKa is reported as 4.29. CCC(O)CN(C)CC(O)CC (centres undefined) gave a pKa of 9. [O-]c1cccnc1 showed a pKa of 8.6. For CCOc1c(C#N)cnc2ccccc12, the pKa was 3.18. O=C(O)c1cscn1 gave a pKa of 2.9. CN(C)c1ccc2cc3ccc([NH+](C)C)cc3[nH+]c2c1 gave a pKa of -3.15. Work on Cn1cnc2c(N)nc[nH+]c21 yielded a pKa of -0.59. With NNC(=O)c1cccnc1 the pKa was 3.27. For Cc1cccc(/N=N/c2ccc(N)cc2)c1, the pKa was 2.88. Molecule O=C(c1ccccc1)N1CCNCC1 has a pKa of 7.79. With [S-]c1ccncn1 the pKa was 6.7. Molecule c1cncc(C2=NCCC2)c1 has a pKa of 8.77. With Cc1cc(-c2ccccc2)nnc1NCCN1CCOCC1 the pKa was 7.05. CC(C)CCNCCC(C)C gave a pKa of 10.9. For Cc1ccc(N2CCCC(=O)C(O)CCC2)cc1 (centres undefined), the pKa was 3.2. Work on c1ccc(-n2cccn2)nc1 yielded a pKa of 1.07. Molecule CC(=O)c1ccc(NN=C(C#N)C#N)cc1 has a pKa of -0.77. With Nc1ccnc(-c2cc(Cl)ccn2)c1 the pKa was 7.4. Work on Cc1nn(C)c(C)c1C yielded a pKa of 4.48. [S-]c1cnc2cncnc2n1 gave a pKa of 5.5. Molecule CCOCCn1c(CN2CCN(CCCCn3cc(C(=O)[O-])cn3)CC2)nc2ccccc21 has a pKa of 8. Work on CN(C)CCC/N=C(\c1ccccc1)c1ccc2ccccc2c1 yielded a pKa of 9.2. Work on Cn1cncc1C[C@H](N)C(=O)[O-] yielded a pKa of 8.72. Molecule CN1CCc2cccc(c2)CCc2ccc1cc2 has a pKa of 6.76. CN1CCC(NNc2ccccc2)CC1 gave a pKa of 8.7. c1ccc(CC2CCCN2)cc1 (centres undefined) showed a pKa of 10.3. CO[C@H]1C=CC2=CCN3CC[C@H](CO)/C(=C\CO)[C@]23C1 showed a pKa of 7.79. N=C(N)Nc1ccccc1 gave a pKa of 10.8. In the case of Cc1cc(N)ncn1, the pKa is reported as 6.25. CCCCCCCCCCCCN(CCO)CC(O)CC (centres undefined) showed a pKa of 6.4. In the case of COc1nc2ncncc2[nH]1, the pKa is reported as 3.14. Work on CN1CCC(n2nc(-c3ccccc3)c(Cc3ccccc3)c2[O-])CC1 yielded a pKa of 9.13. With CCCCCNCc1ccccc1O the pKa was 8.65. Molecule N=C1C=C(N)C(=O)c2ccccc21 has a pKa of 8.87. CCSC(=O)c1cccc(C)c1 gave a pKa of -4.77. Work on CC1=NCCCCN1 yielded a pKa of 12.7. CC(C)[C@@H]1CC[C@@H](C)C[C@@H]1N gave a pKa of 10.5. In the case of O=C(O)c1cc2ccccc2[nH]1, the pKa is reported as -0.57. In the case of CN(C)Cc1ccccc1O, the pKa is reported as 8.6. Molecule Cc1ccc2nccc(NCCC[NH+](C)C)c2c1[N+](=O)[O-] has a pKa of 6.15. With NC/C=C/C(=O)[O-] the pKa was 9.46. For CCCCCCCCCCCCCCCCN(CC(O)CC)CC(O)CC (centres undefined), the pKa was 5.6. Nc1nc2c(o1)CCCC2 showed a pKa of 5.75. NCCCCCc1cccnc1 gave a pKa of 10.3. Nc1cccc(N)c1 gave a pKa of 5.04. With C1CNCNC1 the pKa was 8.84. Work on CC(C)(C)c1ccccc1N yielded a pKa of 3.78. CC(=O)CCCCN(C)C gave a pKa of 9.66. In the case of CCCC1CCCN1C (centres undefined), the pKa is reported as 9.78. c1ccc(NCCN2CCCCC2)cc1 gave a pKa of 9.2. For C[C@@H]1N[C@H]1C, the pKa was 5.33. For C[C@H]1C[C@@]23[C@@H]4CCCN2CCC[C@H]3[C@@H](O)C[C@H]4C1=O, the pKa was 9.13. CNc1c2ccccc2nc2cccc([N+](=O)[O-])c12 gave a pKa of 7.2. Work on NCCC(=O)N[C@@H](Cc1cnc[nH]1)C(=O)[O-] yielded a pKa of 9.35. For C[NH+](C)c1ccc(/N=N/c2ccncc2)cc1, the pKa was 3.4. For O=S(=O)(Nc1ncccn1)c1ccccc1, the pKa was 0.15. C=C(C)C(=O)OCCN gave a pKa of 8.7. Nc1nc([O-])c2ncn([C@H]3O[C@@H](CO)[C@H](O)[C@@H]3O)c2n1 gave a pKa of 9.41. For Cc1cc([O-])nc(-n2nc(C)cc2O)n1, the pKa was 10. Molecule CC[NH2+]/C(=C/C(=O)c1cccc(S(=O)(=O)[O-])c1)n1ccnc1 has a pKa of 4.5. With CNNC1CCN(C)CC1 the pKa was 8.7. Nc1cccc(S(N)(=O)=O)c1 gave a pKa of 2.87. Work on Cc1[nH]cnc1CSCCNC(=N)NCCCc1c[nH]cn1 yielded a pKa of 11.6. Work on COC(=O)[C@H](Cc1c[nH]cn1)NC(C)=O yielded a pKa of 6.3. With CC(C)CCSC(=N)c1ccccc1 the pKa was 8.43. In the case of N[C@H]1C[C@H]2CCCC[C@@H]2C[C@@H]1[NH3+], the pKa is reported as 6.68. Molecule COc1ccc(N(C)C)cc1 has a pKa of 5.86. With Cc1cnc2c(c1)c(C)cc1c(C)ccnc12 the pKa was 5.9. In the case of O=Cc1ccc(-c2cnc(-c3ccccc3)o2)cc1, the pKa is reported as 0.57. In the case of Cc1cccc(C)c1/C(=N/CCC[NH+](C)C)c1ccccc1, the pKa is reported as 3.83. Nc1ccc2[nH]c(Cc3ccccc3)nc2c1 showed a pKa of 6.4. For Cc1cc2cccnc2c2ncccc12, the pKa was 5.26. Molecule Nc1cnc2cc3ccccc3cc2c1 has a pKa of 4.78.
